Here are results for seven compounds from PubChem BioAssay AID1259407 (Chemical Carcinogenesis Research Information System (CCRIS), 2018).

Active and inactive are the calls of the source. The rule behind the calls is not given here.

For the data set, the system named is CCRIS mutagenicity, Ames/micronucleus/aberration tests. The data set can be described thus: CCRIS mutagenicity studies.
[1] abbreviates: Test System: AMES SALMONELLA TYPHIMURIUM, Strain/Indicator: TA98, Metabolic Activation: NONE, Method: PREINCUBATION
The mark [2] stands for this setting: Test System: AMES SALMONELLA TYPHIMURIUM, Strain/Indicator: TA1535, Metabolic Activation: NONE, Method: PREINCUBATION
Setting [3] is: Test System: AMES SALMONELLA TYPHIMURIUM, Strain/Indicator: TA100, Metabolic Activation: NONE, Method: STANDARD PLATE.
[4] abbreviates: Test System: AMES SALMONELLA TYPHIMURIUM, Strain/Indicator: TA98, Metabolic Activation: NONE, Method: STANDARD PLATE.
Setting [5] is: Test System: AMES SALMONELLA TYPHIMURIUM, Strain/Indicator: TA98, Metabolic Activation: RAT, LIVER, S-9, AROCLOR 1254, Method: STANDARD PLATE.
Setting [6] is: Test System: AMES SALMONELLA TYPHIMURIUM, Strain/Indicator: TA100, Metabolic Activation: RAT, LIVER, S-9, AROCLOR 1254, Method: STANDARD PLATE.

Consider `O[C@H]([C@H](O)[C@@H](O)CBr)[C@H](O)CBr`, for which the mutagenic call runs as follows: (Test System: AMES SALMONELLA TYPHIMURIUM, Strain/Indicator: TA98, Metabolic Activation: HAMSTER, LIVER, S-9, AROCLOR 1254 (10%), Method: PREINCUBATION) “inactive; negative”; under setting [1], “inactive; negative”; (Test System: AMES SALMONELLA TYPHIMURIUM, Strain/Indicator: TA98, Metabolic Activation: RAT, LIVER, S-9, AROCLOR 1254 (10%), Method: PREINCUBATION) “inactive; negative”; (Test System: AMES SALMONELLA TYPHIMURIUM, Strain/Indicator: TA100, Metabolic Activation: HAMSTER, LIVER, S-9, AROCLOR 1254 (10%), Method: PREINCUBATION) “active; positive”; (Test System: AMES SALMONELLA TYPHIMURIUM, Strain/Indicator: TA100, Metabolic Activation: NONE, Method: PREINCUBATION) “active; positive”; (Test System: AMES SALMONELLA TYPHIMURIUM, Strain/Indicator: TA100, Metabolic Activation: RAT, LIVER, S-9, AROCLOR 1254 (10%), Method: PREINCUBATION) “active; positive”. Besides, the mutagenic call reads like this: (Test System: AMES SALMONELLA TYPHIMURIUM, Strain/Indicator: TA1535, Metabolic Activation: HAMSTER, LIVER, S-9, AROCLOR 1254 (10%), Method: PREINCUBATION) “active; positive”; under setting [2], “active; positive”; (Test System: AMES SALMONELLA TYPHIMURIUM, Strain/Indicator: TA1535, Metabolic Activation: RAT, LIVER, S-9, AROCLOR 1254 (10%), Method: PREINCUBATION) “active; positive”; (Test System: AMES SALMONELLA TYPHIMURIUM, Strain/Indicator: TA1537, Metabolic Activation: HAMSTER, LIVER, S-9, AROCLOR 1254 (10%), Method: PREINCUBATION) “inactive; negative”; (Test System: AMES SALMONELLA TYPHIMURIUM, Strain/Indicator: TA1537, Metabolic Activation: NONE, Method: PREINCUBATION) “inactive; negative”; (Test System: AMES SALMONELLA TYPHIMURIUM, Strain/Indicator: TA1537, Metabolic Activation: RAT, LIVER, S-9, AROCLOR 1254 (10%), Method: PREINCUBATION) “inactive; negative”.

As to `COc1nsc2ccc(OCC3CO3)cc12` (stereo unspecified), under setting [3], the mutagenic call was “active; positive”.

As for `Nc1cc2ccc3cccc4ccc(c1)c2c34`, the mutagenic call is “active; positive” (Test System: AMES SALMONELLA TYPHIMURIUM, Strain/Indicator: TA98, Metabolic Activation: RAT, LIVER, S-9, AROCLOR 1254 (2 OR 4%), Method: STANDARD PLATE); “active; positive” (Test System: AMES SALMONELLA TYPHIMURIUM, Strain/Indicator: TA100, Metabolic Activation: RAT, LIVER, S-9, AROCLOR 1254 (2%), Method: STANDARD PLATE); “inactive; negative” (Test System: AMES SALMONELLA TYPHIMURIUM, Strain/Indicator: TA1535, Metabolic Activation: RAT, LIVER, S-9, AROCLOR 1254 (2%), Method: STANDARD PLATE); “active; positive” (Test System: AMES SALMONELLA TYPHIMURIUM, Strain/Indicator: TA1537, Metabolic Activation: RAT, LIVER, S-9, AROCLOR 1254 (2%), Method: STANDARD PLATE).

Regarding `CC1=CCC(=O)O1`, the mutagenic call is “inactive; negative” under setting [4], “inactive; negative” under setting [5], “inactive; negative” under setting [3] and “inactive; negative” under setting [6].

Consider `O[C@H]1[C@H]2O[C@H]2C=C[C@@H]1O`, for which the mutagenic call by setting is: (Test System: AMES SALMONELLA TYPHIMURIUM, Strain/Indicator: TA97, Metabolic Activation: NONE, Method: PREINCUBATION) “inactive; negative”; under setting [1], “inactive; negative”; under setting [2], “active; positive”.

In the case of `C/C=C(\C)C(=O)O[C@H]1C[C@@H](OC(C)=O)[C@@]2(C(=O)OC)CO[C@H]3[C@@H](O)[C@@](C)([C@]45O[C@@]4(C)[C@H]4C[C@@H]5O[C@@H]5OC=C[C@@]54O)[C@H]4[C@]1(CO[C@]4(O)C(=O)OC)[C@@H]32`, the mutagenic call reads like this: (End Point: IN VIVO CHROMOSOMAL ABERRATIONS, Test System: BONE MARROW, Species: MOUSE, Strain/Sex: SWR/J/MALE,FEMALE, Route: ORAL (GAVAGE)) “inactive; negative”; (End Point: In vivo chromosomal aberrations, Test System: Bone marrow cells, Species: Mouse, Strain/Sex: Swiss/Male, Route: Oral) “active; positive (structural changes)”.

Regarding `C=C(C)C(=O)OCCCCCOC(=O)C(=C)C`, the mutagenic call was “inactive; negative” under setting [4]; “inactive; negative” under setting [5]; “inactive; negative” (Test System: AMES SALMONELLA TYPHIMURIUM, Strain/Indicator: TA98, Metabolic Activation: RAT, LIVER, S-9, SODIUM PHENOBARBITAL, Method: STANDARD PLATE); “inactive; negative” under setting [3]; “inactive; negative” under setting [6]; “inactive; negative” (Test System: AMES SALMONELLA TYPHIMURIUM, Strain/Indicator: TA100, Metabolic Activation: RAT, LIVER, S-9, SODIUM PHENOBARBITAL, Method: STANDARD PLATE). Further, the mutagenic call is “inactive; negative” (Test System: AMES SALMONELLA TYPHIMURIUM, Strain/Indicator: TA1535, Metabolic Activation: NONE, Method: STANDARD PLATE); “inactive; negative” (Test System: AMES SALMONELLA TYPHIMURIUM, Strain/Indicator: TA1535, Metabolic Activation: RAT, LIVER, S-9, AROCLOR 1254, Method: STANDARD PLATE); “inactive; negative” (Test System: AMES SALMONELLA TYPHIMURIUM, Strain/Indicator: TA1535, Metabolic Activation: RAT, LIVER, S-9, SODIUM PHENOBARBITAL, Method: STANDARD PLATE); “inactive; negative” (Test System: AMES SALMONELLA TYPHIMURIUM, Strain/Indicator: TA1537, Metabolic Activation: NONE, Method: STANDARD PLATE); “inactive; negative” (Test System: AMES SALMONELLA TYPHIMURIUM, Strain/Indicator: TA1537, Metabolic Activation: RAT, LIVER, S-9, AROCLOR 1254, Method: STANDARD PLATE); “inactive; negative” (Test System: AMES SALMONELLA TYPHIMURIUM, Strain/Indicator: TA1537, Metabolic Activation: RAT, LIVER, S-9, SODIUM PHENOBARBITAL, Method: STANDARD PLATE). Moreover, the mutagenic call by setting is: (Test System: AMES SALMONELLA TYPHIMURIUM, Strain/Indicator: TA1538, Metabolic Activation: NONE, Method: STANDARD PLATE) “inactive; negative”; (Test System: AMES SALMONELLA TYPHIMURIUM, Strain/Indicator: TA1538, Metabolic Activation: RAT, LIVER, S-9, AROCLOR 1254, Method: STANDARD PLATE) “inactive; negative”; (Test System: AMES SALMONELLA TYPHIMURIUM, Strain/Indicator: TA1538, Metabolic Activation: RAT, LIVER, S-9, SODIUM PHENOBARBITAL, Method: STANDARD PLATE) “inactive; negative”.
